# Data as given in ChEMBL document CHEMBL1141053, “Synthesis and SAR of novel oxazolidinones: discovery of ranbezolid” (2005).
# Experiments:
# Assay type in all cases: functional
# [1] = tested on: Staphylococcus aureus; experiment: In vitro minimum inhibitory concentration against Staphylococcus aureus ATCC 25923 after incubation in air at 35 degree C for 24 hr using agar dilution method; conditions: ATCC 25923, 24 h
# [2] = tested on: Staphylococcus aureus; experiment: In vitro minimum inhibitory concentration against methicillin-resistant Staphylococcus aureus 562 after incubation in air at 35 degree C for 24 hr using agar dilution method
# [3] = tested on: Enterococcus faecium; experiment: In vitro minimum inhibitory concentration against vancomycin-resistant Enterococcus faecium 6A after incubation in air at 35 degree C for 24 hr using agar dilution method
# [4] = tested on: Streptococcus pyogenes; experiment: In vitro minimum inhibitory concentration against Streptococcus pyogenes ATCC 19615 after incubation in air at 35 degree C for 24 hr using agar dilution method; conditions: ATCC 19615, 24 h
# [5] = tested on: Enterococcus faecalis; experiment: In vitro minimum inhibitory concentration against Enterococcus faecalis ATCC 29212 after incubation in air at 35 degree C for 24 hr using agar dilution method; conditions: ATCC 29212, 24 h
# [6] = tested on: Streptococcus pneumoniae; experiment: In vitro minimum inhibitory concentration against Streptococcus pneumoniae ATCC 6303 after incubation in air at 35 degree C for 24 hr using agar dilution method; conditions: ATCC 6303, 24 h
# [7] = tested on: Staphylococcus aureus; experiment: In vivo effective dose (on day 7-post-infection) against methicillin-resistant Staphylococcus aureus 562 infected mice upon peroral administration at 30 min and 4 hr post-infection; conditions: po
Compound,MIC [1],MIC [2],MIC [3],MIC [4],MIC [5],MIC [6],ED50 [7]
CC(=O)NC[C@H]1CN(c2ccc(N3CCN(Cc4ccoc4[N+](=O)[O-])CC3)c(F)c2)C(=O)O1,8 µg/mL,4 µg/mL,4 µg/mL,1 µg/mL,4 µg/mL,1 µg/mL,–
CC(=O)NC[C@H]1CN(c2ccc(N3CCN(Cc4ccc([N+](=O)[O-])n4C)CC3)c(F)c2)C(=O)O1,4 µg/mL,4 µg/mL,4 µg/mL,2 µg/mL,4 µg/mL,8 µg/mL,–
CC(=O)NC[C@H]1CN(c2ccc(N3CCN(Cc4ccc(COC(C)=O)o4)CC3)c(F)c2)C(=O)O1,> 16 µg/mL,> 16 µg/mL,> 16 µg/mL,> 16 µg/mL,> 16 µg/mL,> 16 µg/mL,–
CC(=O)NC[C@H]1CN(c2ccc(N3C[C@@H]4[C@H](C3)[C@H]4N(C)c3ccc([N+](=O)[O-])o3)c(F)c2)C(=O)O1,2 µg/mL,–,2 µg/mL,0.06 µg/mL,1 µg/mL,2 µg/mL,–
CC(=O)NC[C@H]1CN(c2ccc(N3CCN(Cc4ccc(C)o4)CC3)c(F)c2)C(=O)O1,> 16 µg/mL,> 16 µg/mL,> 16 µg/mL,> 16 µg/mL,> 16 µg/mL,> 16 µg/mL,–
CC(=O)NC[C@H]1CN(c2ccc(N3CCN(Cc4ccc(/C=N/N)o4)CC3)c(F)c2)C(=O)O1,2 µg/mL,1 µg/mL,8 µg/mL,8 µg/mL,8 µg/mL,8 µg/mL,–
CC(=O)NC[C@H]1CN(c2ccc(N3CCN(Cc4ccc(Cl)o4)CC3)c(F)c2)C(=O)O1,> 16 µg/mL,> 16 µg/mL,> 16 µg/mL,> 16 µg/mL,> 16 µg/mL,> 16 µg/mL,–
CC(=O)NC[C@H]1CN(c2ccc(N3CCN(Cc4ccc(C#N)o4)CC3)c(F)c2)C(=O)O1,16 µg/mL,16 µg/mL,16 µg/mL,16 µg/mL,16 µg/mL,16 µg/mL,–
CC(=O)NC[C@H]1CN(c2ccc(N3CCN(Cc4ccco4)CC3)c(F)c2)C(=O)O1,8 µg/mL,8 µg/mL,8 µg/mL,4 µg/mL,8 µg/mL,8 µg/mL,> 25 mg/kg
CC(=O)NC[C@H]1CN(c2ccc(N3CCN(Cc4ccc(C=O)o4)CC3)c(F)c2)C(=O)O1,1 µg/mL,1 µg/mL,8 µg/mL,8 µg/mL,8 µg/mL,4 µg/mL,> 25 mg/kg
CC(=O)NC[C@H]1CN(c2ccc(N3CCN(Cc4ccc([N+](=O)[O-])o4)CC3C)c(F)c2)C(=O)O1 (stereo partly specified),4 µg/mL,2 µg/mL,4 µg/mL,4 µg/mL,4 µg/mL,8 µg/mL,–
CC(=O)NC[C@H]1CN(c2ccc(N3CCC(N(C)c4ccc([N+](=O)[O-])o4)CC3)c(F)c2)C(=O)O1,1 µg/mL,0.5 µg/mL,0.5 µg/mL,0.125 µg/mL,0.25 µg/mL,0.5 µg/mL,7.43 mg/kg
CC(=O)NC[C@H]1CN(c2ccc(N3CCC(Nc4ccc([N+](=O)[O-])o4)CC3)c(F)c2)C(=O)O1,1 µg/mL,1 µg/mL,0.5 µg/mL,0.25 µg/mL,0.5 µg/mL,2 µg/mL,–
CC(=O)NC[C@H]1CN(c2ccc(N3CCN(Cc4ccc([N+](=O)[O-])[nH]4)CC3)c(F)c2)C(=O)O1,4 µg/mL,4 µg/mL,4 µg/mL,1 µg/mL,4 µg/mL,4 µg/mL,–
